Source: US4912092A, “Methods for increasing extracellular adenosine and for stabilizing mast cells” (The Regents of the University of California, priority 1987, dated 1990)
Where “and” joins values, the source holds several entries; their conditions need not be identical. Equal values may be shown once.

How the values were obtained:
ischemic myocardium = assay: Regional myocardial blood flow during coronary artery occlusion (radiolabelled microspheres); assay type: in vivo, dog
Text: FIG. 4. […] The means plus the standard deviations are graphed. […] Thirteen mongrel dogs were anesthetized with phenobarbital. […] C.V. Dis. 20; 55 (1977).

[1] = system: Mouse bone marrow-derived mast cells; assay: Mast cell leukotriene C4 release (radioimmune assay); assay type: cell-based
Protocol: By preventing mast cell degranulation, it is possible to prevent or control a patient's allergic response. Bone marrow obtained from Balb/C mice femurs was cultured in a 1:1 mixture of Razin media and conditioned media, produced by co-culturing splenocytes from C57B1/6J and C3H mice in the presence of Concanavalin A as described by Razin et al. in the Proc. Natl. Acad. Sci. USA 28: 2559-2561, 1981. After weekly passaging and at least 15 days in tissue culture, the resulting cells were 90% pure mast cells and 95% viable as assessed by Trypan blue exclusion. Cells exposed to ribavirin in culture were washed three times prior to use in experiments. Parallel cultures of cells grown in media alone were used as controls for pharmacologically manipulated mast cells. Cell growth was assessed by counting cells at particular time points and comparing actual numbers of ribavirin-treated cells to numbers of cells grown in media alone.

[2] = Plasma, CSF, erythrocyte and urine measurements in the patient trial; assay type: in vivo, human
Text: Following authorization, therapeutic trials with AICA riboside were started in two patients with adenylosuccinase deficiency (autism). […] On Day 55, both patients were briefly readmitted for clinical, biochemical and psychiatric evaluation. […] Treatment was maintained until Day 71, and arrested at that date.
A correct assessment of the renal loss of the nucleoside could not be obtained.

[3] = system: pentylene tetrazol-induced seizures; assay: Pentylene tetrazol-induced seizures; assay type: in vivo, rat
arrhythmias = assay: Arrhythmias (PVD, VTAC) during ischemia in dogs; assay type: in vivo, dog
Protocol: (§1) Thirteen mongrel dogs were anesthetized with phenobarbital. […] C.V. Dis. 20; 55 (1977). […] Two of the surviving saline-treated animals fibrillated. […] The range was 4.4 to 100 μM.
One consequence of myocardial ischemia is arrhythmia and the frequency of arrhythmias is related to the degree of reduced blood flow. […] Electrocardiograms recorded during ischemia of Example III were analyzed for the number of premature ventricular depolarizations (PVD) and ventricular tachycardia (VTAC) episodes.

adenosine = assay: Coronary venous adenosine concentrations during coronary artery occlusion in dogs; assay type: in vivo, dog
Protocol: FIG. 3. […] Coronary venous blood was collected into chilled 2N perchloric acid at various times before and after coronary artery occlusion. Supernatants from these extracts were neutralized with alamine and freon and evaluated by high performance liquid chromotography.
as §1

[4] = one hour after intravenous administration
[5] = dogs 1-6 of the AICA riboside group

NC(=O)c1ncn([C@@H]2O[C@H](CO)[C@@H](O)[C@H]2O)c1N [AICA riboside, 5-amino-4-imidazolecarboxamide riboside]
regional myocardial blood flow to the ischemic myocardium versus saline (ischemic myocardium; 5 and 60 minutes of occlusion): significantly greater
flow to normal (non-ischemic) myocardium (ischemic myocardium; dog, in vivo): did not alter flow to normal myocardium
collateral blood flow versus saline (radiolabelled microspheres) (ischemic myocardium; dogs of Example IX): significantly greater
supernatant leukotriene C4 concentration ([1]; 100 μM for six days, A23187 challenge 20 minutes, control 51): 13 nanograms/10^6 cells
inhibition at 100 µM ([1]; Mus musculus, Mast cell, 100 μM pretreatment for six days, p<0.01, read-out: reduction of leukotriene C4 release): 75%
AICA riboside in plasma and CSF ([2]; all dosages used, oral 5 to 2×10 mg/kg/day and intravenous 20 mg/kg/day): could not be detected
AICA riboside in plasma [2, 4]: undetectable in plasma
AICA riboside triphosphate in the erythrocytes [2, 4]: had similarly accumulated in the erythrocytes
concentrations of AICA riboside triphosphate reached in erythrocytes ([2]; oral as well as intravenous administration): of the same magnitude as those of GTP
latency to seizure ([3]; 2000 mg/kg (total dose) intraperitoneal (FIG. 12)): dramatic prolongation
reduction of animals having seizures ([3]; 2000 mg/kg (total dose) intraperitoneal, 60 mg/kg pentylene tetrazol): 40%
VTAC, average (arrhythmias; average of six dogs, saline 18.2, p<0.01): 4.7 EPISODES/H
PVD, average (arrhythmias; average of six dogs, saline 112.2, p<0.01): 37.8 EPISODES/H
PVD, individual dogs (arrhythmias; [5]): 12 EPISODES/H and 10 EPISODES/H and 182 EPISODES/H and 4 EPISODES/H and 13 EPISODES/H and 6 EPISODES/H
VTAC, individual dogs (arrhythmias; [5]): 1 EPISODES/H and 0 EPISODES/H and 27 EPISODES/H
adenosine washout on reperfusion (adenosine; 1 minute after reperfusion): significant rise
peak adenosine level, coronary venous blood (adenosine; 1 minute of ischemia, saline peak 0.22 +/-0.08 at 10 minutes): 1.79 ± 0.35 µM
adenosine level, coronary venous blood (adenosine; 60 minutes of ischemia, saline undetectable): 0.18 ± 0.15 µM
venous adenosine prior to ischemia (adenosine; before and during infusion): < 0.01 µM
adenosine in blood from the right atrium (systemic blood) (adenosine; dog, in vivo): no detectable adenosine
